Reference: patent publication US20070020203A1, “Skin care composition” (priority 2005, published 2007)

Molecular target: Mushroom Tyrosinase (Agaricus bisporus, UniProt C7FF04)
Assay: Comparative tyrosinase inhibitory activity (dopachrome optical density at 475 nm)
Assay type: biochemical
Experimental: All measurements were performed at room temperature (24 C) with a Beckman Coulter DU-640 spectrophotometer at a scan speed of 1200 nm/min with a spectral range from 300 to 700 nm.
Buffer solution • KH2PO4 99.8% & KOH 85+% (pH 7.4, 100 mM) • Mol. Wt. 136.09, VWR and Sigma-Aldrich • KH2PO4 (1362 mg) dissolved in distilled water (100 ml) and pH adjusted to 7.4 with a 2 M KOH solution • 2. Mushroom Tyrosinase solution (240 units per 1 ml) • 2440 units/mg, Sigma-Aldrich • Tyrosinase (2.5 mg) dissolved in 25 ml of distilled water • 3. L-DOPA solution (6.3 mM) • Mol. Wt. 197, Sigma-Aldrich • 33.1 mg are dissolved in distilled water (25 ml) • 4. L-Tyrosine solution (1.3 mM) • Mol. Wt. 181.2, Sigma-Aldrich • 23.5 mg are dissolved in distilled water (100 ml) • 5. Hydrogen peroxide solution (5 mM) • Sigma-Aldrich • 1/100 of 0.9/25 vol. dilution of a 50% wt. solution b) Skin Lightening Ingredients • 5. Emblica™ antioxidant (5 mM)—Lot # CA0106007 • Average Mol. Wt. 729, EMD Chemicals / Merck KGaA • Emblica (18.2 mg) dissolved in distilled water (5 ml) • 6. […]
The stock solutions were added in an orderly manner with quantities according to Table 1 as to obtain a final total volume of 3.0 ml for each preparation. […] After 15 min of reaction time, the spectra were recorded between 300 and 700 nm and the optical density at 475 nm (Dopachrome) measured.

Chain of Mushroom Tyrosinase (C7FF04 1-392): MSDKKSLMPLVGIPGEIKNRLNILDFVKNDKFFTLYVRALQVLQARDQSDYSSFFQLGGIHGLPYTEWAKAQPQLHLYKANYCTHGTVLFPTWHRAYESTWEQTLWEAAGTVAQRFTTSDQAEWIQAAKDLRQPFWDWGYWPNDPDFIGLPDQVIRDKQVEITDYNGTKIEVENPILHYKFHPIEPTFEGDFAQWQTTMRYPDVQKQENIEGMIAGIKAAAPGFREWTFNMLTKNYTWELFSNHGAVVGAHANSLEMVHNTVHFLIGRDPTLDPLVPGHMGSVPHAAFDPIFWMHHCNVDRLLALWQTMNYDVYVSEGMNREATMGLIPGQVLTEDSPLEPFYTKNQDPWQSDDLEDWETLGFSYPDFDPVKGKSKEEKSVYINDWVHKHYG
Chain of Mushroom Tyrosinase (G1K3P4 entry or part of it, further chain): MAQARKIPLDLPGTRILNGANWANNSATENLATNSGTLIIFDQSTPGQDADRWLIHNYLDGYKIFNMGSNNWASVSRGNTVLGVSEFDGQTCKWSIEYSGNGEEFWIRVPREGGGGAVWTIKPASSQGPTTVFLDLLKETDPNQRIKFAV

Structure (SMILES): Oc1ccc(O)cc1 [Hydroquinone]
- inhibitory activity against tyrosinase (in words) (DOPA as substrate): less effective
- inhibitory activity against tyrosinase (in words) (tyrosine used as a substrate): excellent inhibitory activity
